Measured values published in patent US8758816B2, “Compositions comprising azelastine and methods of use thereof” (priority 2004, dated 2014).
Where a name gives a salt, the structure may show the parent alone.

System: patients with seasonal allergic rhinitis (SAR)
Assay: MP 428 study: individual symptom severity scores (runny nose, itchy nose, sneezing, congestion; 0-3 scale)
Format: in vivo, human
Conditions: Intent-to-Treat Population
Description: A two-week, randomized, double-blind study, which evaluated the effects of the co-administration of ASTELIN® (azelastine hydrochloride (HCl)) and FLONASE® (fluticasone propionate) compared to either product alone in patients with seasonal allergic rhinitis (SAR) was conducted during the 2006 Texas mountain cedar season. After a 5-day placebo lead-in period, 151 patients with moderate-to-severe allergic rhinitis symptoms were randomized to either: (1) (49 total patients) ASTELIN® (azelastine hydrochloride (HCl)) plus placebo saline nasal spray 2 sprays per nostril, 15 minutes apart, twice daily (AM & PM); (2) (50 total patients) FLONASE® (fluticasone propionate) plus placebo saline nasal spray, 2 sprays per nostril, 15 minutes apart, once daily (AM) and two sessions of placebo saline nasal spray, 2 sprays per nostril, 15 minutes apart (PM); or (3) (52 total patients) the co-administration of ASTELIN® (azelastine hydrochloride (HCl)) 2 sprays per nostril plus FLONASE® (fluticasone propionate) 2 sprays per nostril (AM), 15 minutes apart, and ASTELIN® (azelastine hydrochloride (HCl)) 2 sprays per nostril plus placebo saline nasal spray, 15 minutes apart, (PM) for a 2-week double-blind treatment period.
The primary efficacy variable was the change from baseline in the Total Nasal Symptom Score (TNSS), which comprised sneezing, itchy nose, runny nose, and nasal congestion (individual symptoms scores were assigned a value between 0 and 3, where 0=no symptoms and 3=severe symptoms). This study was not statistically designed to assess the differences between ASTELIN® and FLONASE®.
The results of the clinical trial are summarized and presented in Appendix A hereinbelow and in FIGS. 1-6. […] FIGS. 2-5 show the mean improvement in severity score (0-3 scale) from baseline for the symptoms of runny nose, itchy nose, sneezing and congestion, respectively.

## CN1CCCC(n2nc(Cc3ccc(Cl)cc3)c3ccccc3c2=O)CC1 (racemic) [Azelastine, (±)-1-(2H)-phthalazinone, 4-[(4-chlorophenyl)methyl]-2-(hexahydro-1-methyl-1H-azepin-4-yl)-, mono-hydrochloride]
Day 9
  Change from Baseline in AM and PM Combined Nasal Symptom Score: Congestion, LS Mean: −1.20
  Change from Baseline in AM and PM Combined Nasal Symptom Score: Congestion, Mean: −1.23
  Change from Baseline in AM and PM Combined Nasal Symptom Score: Congestion, Median: −1.00
  Change from Baseline in AM and PM Combined Nasal Symptom Score: Itchy Nose, LS Mean: −1.29
  Change from Baseline in AM and PM Combined Nasal Symptom Score: Itchy Nose, Mean: −1.27
  Change from Baseline in AM and PM Combined Nasal Symptom Score: Itchy Nose, Median: −0.93
  Change from Baseline in AM and PM Combined Nasal Symptom Score: Runny Nose, LS Mean: −1.14
  Change from Baseline in AM and PM Combined Nasal Symptom Score: Runny Nose, Mean: −1.15
  Change from Baseline in AM and PM Combined Nasal Symptom Score: Runny Nose, Median: −0.90
  Change from Baseline in AM and PM Combined Nasal Symptom Score: Sneezing, LS Mean: −1.72
  Change from Baseline in AM and PM Combined Nasal Symptom Score: Sneezing, Mean: −1.73
  Change from Baseline in AM and PM Combined Nasal Symptom Score: Sneezing, Median: −1.67
  Percent Change from Baseline in AM and PM Combined Nasal Symptom Score: Congestion, LS Mean: −21.68%
  Percent Change from Baseline in AM and PM Combined Nasal Symptom Score: Congestion, Mean: −22.05%
  Percent Change from Baseline in AM and PM Combined Nasal Symptom Score: Congestion, Median: −18.64%
  Percent Change from Baseline in AM and PM Combined Nasal Symptom Score: Itchy Nose, LS Mean: −27.69%
  Percent Change from Baseline in AM and PM Combined Nasal Symptom Score: Itchy Nose, Mean: −26.97%
  Percent Change from Baseline in AM and PM Combined Nasal Symptom Score: Itchy Nose, Median: −21.57%
  Percent Change from Baseline in AM and PM Combined Nasal Symptom Score: Runny Nose, LS Mean: −23.07%
  Percent Change from Baseline in AM and PM Combined Nasal Symptom Score: Runny Nose, Mean: −23.25%
  Percent Change from Baseline in AM and PM Combined Nasal Symptom Score: Runny Nose, Median: −21.74%
  Percent Change from Baseline in AM and PM Combined Nasal Symptom Score: Sneezing, LS Mean: −36.31%
  Percent Change from Baseline in AM and PM Combined Nasal Symptom Score: Sneezing, Mean: −36.04%
  Percent Change from Baseline in AM and PM Combined Nasal Symptom Score: Sneezing, Median: −35.48%
Day 10
  Change from Baseline in AM and PM Combined Nasal Symptom Score: Congestion, LS Mean: −1.12
  Change from Baseline in AM and PM Combined Nasal Symptom Score: Congestion, Mean: −1.17
  Change from Baseline in AM and PM Combined Nasal Symptom Score: Congestion, Median: −1.00
  Change from Baseline in AM and PM Combined Nasal Symptom Score: Itchy Nose, LS Mean: −1.35
  Change from Baseline in AM and PM Combined Nasal Symptom Score: Itchy Nose, Mean: −1.35
  Change from Baseline in AM and PM Combined Nasal Symptom Score: Itchy Nose, Median: −1.10
  Change from Baseline in AM and PM Combined Nasal Symptom Score: Runny Nose, LS Mean: −1.11
  Change from Baseline in AM and PM Combined Nasal Symptom Score: Runny Nose, Mean: −1.13
  Change from Baseline in AM and PM Combined Nasal Symptom Score: Runny Nose, Median: −0.83
  Change from Baseline in AM and PM Combined Nasal Symptom Score: Sneezing, LS Mean: −1.70
  Change from Baseline in AM and PM Combined Nasal Symptom Score: Sneezing, Mean: −1.71
  Change from Baseline in AM and PM Combined Nasal Symptom Score: Sneezing, Median: −1.75
  Percent Change from Baseline in AM and PM Combined Nasal Symptom Score: Congestion, LS Mean: −20.32%
  Percent Change from Baseline in AM and PM Combined Nasal Symptom Score: Congestion, Mean: −20.94%
  Percent Change from Baseline in AM and PM Combined Nasal Symptom Score: Congestion, Median: −16.67%
  Percent Change from Baseline in AM and PM Combined Nasal Symptom Score: Itchy Nose, LS Mean: −29.83%
  Percent Change from Baseline in AM and PM Combined Nasal Symptom Score: Itchy Nose, Mean: −29.56%
  Percent Change from Baseline in AM and PM Combined Nasal Symptom Score: Itchy Nose, Median: −21.57%
  Percent Change from Baseline in AM and PM Combined Nasal Symptom Score: Runny Nose, LS Mean: −22.00%
  Percent Change from Baseline in AM and PM Combined Nasal Symptom Score: Runny Nose, Mean: −22.22%
  Percent Change from Baseline in AM and PM Combined Nasal Symptom Score: Runny Nose, Median: −16.67%
  Percent Change from Baseline in AM and PM Combined Nasal Symptom Score: Sneezing, LS Mean: −41.13%
  Percent Change from Baseline in AM and PM Combined Nasal Symptom Score: Sneezing, Mean: −40.82%
  Percent Change from Baseline in AM and PM Combined Nasal Symptom Score: Sneezing, Median: −38.78%
Day 11
  Change from Baseline in AM and PM Combined Nasal Symptom Score: Congestion, LS Mean: −1.18
  Change from Baseline in AM and PM Combined Nasal Symptom Score: Congestion, Mean: −1.23
  Change from Baseline in AM and PM Combined Nasal Symptom Score: Congestion, Median: −0.92
  Change from Baseline in AM and PM Combined Nasal Symptom Score: Itchy Nose, LS Mean: −1.39
  Change from Baseline in AM and PM Combined Nasal Symptom Score: Itchy Nose, Mean: −1.37
  Change from Baseline in AM and PM Combined Nasal Symptom Score: Itchy Nose, Median: −1.10
  Change from Baseline in AM and PM Combined Nasal Symptom Score: Runny Nose, LS Mean: −1.35
  Change from Baseline in AM and PM Combined Nasal Symptom Score: Runny Nose, Mean: −1.38
  Change from Baseline in AM and PM Combined Nasal Symptom Score: Runny Nose, Median: −1.10
  Change from Baseline in AM and PM Combined Nasal Symptom Score: Sneezing, LS Mean: −1.79
  Change from Baseline in AM and PM Combined Nasal Symptom Score: Sneezing, Mean: −1.79
  Change from Baseline in AM and PM Combined Nasal Symptom Score: Sneezing, Median: −1.55
  Percent Change from Baseline in AM and PM Combined Nasal Symptom Score: Congestion, LS Mean: −20.72%
  Percent Change from Baseline in AM and PM Combined Nasal Symptom Score: Congestion, Mean: −21.53%
  Percent Change from Baseline in AM and PM Combined Nasal Symptom Score: Congestion, Median: −16.67%
  Percent Change from Baseline in AM and PM Combined Nasal Symptom Score: Itchy Nose, LS Mean: −30.38%
  Percent Change from Baseline in AM and PM Combined Nasal Symptom Score: Itchy Nose, Mean: −29.59%
  Percent Change from Baseline in AM and PM Combined Nasal Symptom Score: Itchy Nose, Median: −22.33%
  Percent Change from Baseline in AM and PM Combined Nasal Symptom Score: Runny Nose, LS Mean: −25.36%
  Percent Change from Baseline in AM and PM Combined Nasal Symptom Score: Runny Nose, Mean: −25.83%
  Percent Change from Baseline in AM and PM Combined Nasal Symptom Score: Runny Nose, Median: −21.57%
  Percent Change from Baseline in AM and PM Combined Nasal Symptom Score: Sneezing, LS Mean: −43.40%
  Percent Change from Baseline in AM and PM Combined Nasal Symptom Score: Sneezing, Mean: −42.70%
  Percent Change from Baseline in AM and PM Combined Nasal Symptom Score: Sneezing, Median: −38.78%
Day 12
  Change from Baseline in AM and PM Combined Nasal Symptom Score: Congestion, LS Mean: −1.21
  Change from Baseline in AM and PM Combined Nasal Symptom Score: Congestion, Mean: −1.27
  Change from Baseline in AM and PM Combined Nasal Symptom Score: Congestion, Median: −1.00
  Change from Baseline in AM and PM Combined Nasal Symptom Score: Itchy Nose, LS Mean: −1.33
  Change from Baseline in AM and PM Combined Nasal Symptom Score: Itchy Nose, Mean: −1.33
  Change from Baseline in AM and PM Combined Nasal Symptom Score: Itchy Nose, Median: −1.00
  Change from Baseline in AM and PM Combined Nasal Symptom Score: Runny Nose, LS Mean: −1.22
  Change from Baseline in AM and PM Combined Nasal Symptom Score: Runny Nose, Mean: −1.25
  Change from Baseline in AM and PM Combined Nasal Symptom Score: Runny Nose, Median: −0.43
  Change from Baseline in AM and PM Combined Nasal Symptom Score: Sneezing, LS Mean: −1.63
  Change from Baseline in AM and PM Combined Nasal Symptom Score: Sneezing, Mean: −1.63
  Change from Baseline in AM and PM Combined Nasal Symptom Score: Sneezing, Median: −1.73
